Where no end group is shown, it is not given here.
Tested on: allergen specific T cells
Test: T cell proliferation assay (72 h) on donor derived T cell lines (TCL02/TCL03)
Type: cell-based, human
Settings: for Proliferation % donor coverage (TCL-02 DK1): T cell lines TCL-02 DK1, 30 donors, hit criteria SI>=2, CPM>=1000; for Proliferation strength (TCL-02 DK1): T cell lines TCL-02 DK1, strength of response (average relative magnitude); for donor coverage of homologue peptide compared with native Phleum peptide: TCL-02 DK-2, 21 donors; for average relative magnitude: reference peptides of WO2010/089554, proliferation only
Text: Isolated PBMCs (peripheral blood mononuclear cells) obtained from the donors described in Example 2 were CD8 depleted and the T cell lines were established by stimulating the cultures with nPhl p1, mix of nPhl p 2 and […] 5 and […] established for each of the donors tested by stimulating with the mixture of above listed allergens. Grass allergic donors were recruited (cohort DK1 including 30 grass allergic individuals, DK2 including 24 grass allergic individuals and US1 including 15 grass allergic individuals). PBMCs were isolated from freshly drawn heparinized blood by gradient centrifugation on lymphoprep (Nycomed, Norway), washed twice and re-suspended in RPMI 1640 medium with HEPES and ultraglutamine (Cambrex, Belgium) supplemented with 5% v/v human AB-serum (Cambrex, Belgium), 100 units/ml penicillin, and 0.1 mg/ml streptomycin (Sigma, St Louis, USA) (referred to as 5% AB-medium). Aliquots of the isolated PBMCs were frozen and were thawed later to stimulate the T cell lines. Additionally either fresh or thawed PBMCs were used as antigen presenting cells (APCs) in the proliferation assay as described later. In some cases the PBMCs were freezed at this stage and thawed later on to continue the experiment as described in the following. The isolated PBMCs (fresh or thawed) were CD8 depleted by MACS magnetic depletion according to the manufacturer's instructions (Miltenyi Biotec, Bergisch Gladbach, Germany). On day 0 the CD8-depleted PBMCs (2×10^6/ml) were stimulated in 1 ml bulk cultures in AB medium in 24 well plates (Nunc, Denmark) with the mixture of natural allergens: nPhl p 1 (0.5 μg/ml), mix of […]). […] On day 14 cells were harvested to obtain T cell line generation 01 (referred to as TCL01). Restimulation of T cell lines were performed in AB-medium with the thawed autologous PBMCs (10^6/well, irradiated 2500 Rad), the above mixture of natural allergens (concentration as mentioned above), and PHA-P (0.5 μg/ml, Difco, Detroit, Mich., USA). rIL-2 was added at day 17, 18 and 19. On day 24 cells were harvested to obtain T cell line generation 02 (referred as TCL02). T cells were isolated, washed, counted and used for T cell proliferation assay as described later. Remaining cells were frozen for later thawing and re-stimulations. The T cell line generation 2 (TCL02) were thawed and were re-stimulated with allogeneic Epstein Bar Virus transformed lymphoblastoid cell lines (EBV) B cells (JY cells, 10^5/well, irradiated 3500 Rad), allogeneic PBMCs (10^6/well, irradiated 2500 Rad), and 0.5 μg/ml PHA-P and subsequent addition of rIL-2 at days 3-5 to generate T cell line generation 03 (referred to as TCL03). […] To summarize ELISpot experiments were carried out at day 14 (with TCL01) and proliferation assay on either day 24 (with TCL02) or at day 34 (with TCL03). […] To ensure that all T cell epitopes regions from the major and intermediate grass allergens of the grass were identified T cell screening was carried out with either overlapping peptides or selected peptides. […] These were overlapping 20-mer peptides spanning the entire full length amino acid sequence of […] and selected high binder peptides from Phl p 4 were tested. Additionally 21, 15 mer peptides were tested which were derived from various group 1 and 5 allergens. Also, 67 peptides from homologous grass allergens were tested. Finally some reference peptides and mixes thereof were also tested. The 15-mer peptides were selected on the basis of predicted and measured promiscuous HLA binding and of sequence homology between known proteins sequences from the relevant pooideae grasses and the Bermuda grass. […] To get comprehensive data from all the donors the peptides were tested in both Fluorospot/Elispot (day 14, TCL01) and proliferation (day 24, TCL02).

Row | Compound | donor coverage of homologue peptide compared with native Phleum peptide (2 μg/ml) | also measured
1 | CC[C@H](C)[C@H](NC(=O)[C@H](C)NC(=O)[C@H](CCCCN)NC(=O)[C@@H](NC(=O)[C@H](CC(C)C)NC(=O)[C@H](C)NC(=O)[C@H](C)NC(=O)[C@H](CCC(=O)O)NC(=O)[C@H](Cc1ccccc1)NC(=O)[C@@H](NC(=O)[C@H](C)NC(=O)[C@H](Cc1ccc(O)cc1)NC(=O)[C@H](CCCCN)NC(=O)[C@@H](NC(=O)[C@H](CCC(=O)O)NC(=O)[C@@H]1CCCN1C(=O)[C@@H](N)CCCCN)C(C)C)C(C)C)[C@@H](C)O)C(=O)N[C@H](C(=O)O)[C@@H](C)O [compound 242] |  | Proliferation % donor coverage (TCL-02 DK1): 48.28%; Proliferation strength (TCL-02 DK1): 7.20
2 | CC[C@H](C)[C@H](NC(=O)[C@H](CCCCN)NC(=O)[C@H](CCC(=O)O)NC(=O)[C@@H](NC(=O)[C@H](CC(C)C)NC(=O)[C@H](CCCCN)NC(=O)[C@H](CCC(N)=O)NC(=O)[C@@H](N)CCC(=O)O)[C@@H](C)CC)C(=O)N[C@@H](CC(N)=O)C(=O)N[C@@H](C)C(=O)NCC(=O)N[C@@H](Cc1ccccc1)C(=O)N[C@@H](CCCCN)C(=O)N[C@@H](C)C(=O)N[C@@H](C)C(=O)N[C@H](C(=O)N[C@@H](C)C(=O)N[C@@H](C)C(=O)N[C@@H](C)C(=O)N[C@@H](C)C(=O)O)C(C)C [compound 341] | better donor coverage than the native peptides | 
3 | CC[C@H](C)[C@H](NC(=O)[C@@H](NC(=O)[C@H](CCCNC(=N)N)NC(=O)[C@H](CC(C)C)NC(=O)[C@H](C)NC(=O)[C@H](CCC(=O)O)NC(=O)[C@@H](NC(=O)[C@H](CC(C)C)NC(=O)[C@@H](NC(=O)[C@H](C)NC(=O)[C@@H](NC(=O)[C@H](Cc1ccc(O)cc1)NC(=O)[C@H](C)NC(=O)[C@H](CC(=O)O)NC(=O)[C@H](Cc1ccc(O)cc1)NC(=O)[C@H](CCCCN)NC(=O)[C@H](C)NC(=O)[C@@H](N)CCC(=O)O)C(C)C)[C@@H](C)O)[C@@H](C)O)C(C)C)C(=O)N[C@@H](C)C(=O)NCC(=O)O [compound 345] | comparable donor coverage | 
4 | CC(C)[C@H](NC(=O)[C@@H](NC(=O)[C@H](Cc1ccccc1)NC(=O)[C@H](CCCCN)NC(=O)[C@H](CC(=O)O)NC(=O)[C@H](CC(N)=O)NC(=O)[C@H](C)NC(=O)[C@@H]1CCCN1C(=O)[C@H](C)NC(=O)[C@H](C)NC(=O)[C@H](CC(N)=O)NC(=O)[C@H](C)NC(=O)[C@H](C)NC(=O)[C@@H](NC(=O)[C@H](C)NC(=O)[C@H](C)NC(=O)[C@@H](NC(=O)[C@@H](N)CCCNC(=N)N)[C@@H](C)O)[C@@H](C)O)[C@@H](C)O)C(=O)N[C@@H](Cc1ccccc1)C(=O)N[C@@H](CCC(=O)O)C(=O)O [compound 348] | comparable donor coverage | 
5 | CC[C@H](C)[C@H](NC(=O)[C@H](Cc1ccccc1)NC(=O)[C@H](C)NC(=O)[C@H](CC(=O)O)NC(=O)[C@H](Cc1ccc(O)cc1)NC(=O)[C@H](CCCCN)NC(=O)[C@H](C)NC(=O)[C@@H](N)CCC(=O)O)C(=O)N[C@@H](C)C(=O)N[C@@H](C)C(=O)N[C@@H](CC(C)C)C(=O)N[C@H](C(=O)N[C@@H](CCC(=O)O)C(=O)N[C@@H](C)C(=O)N[C@@H](CC(C)C)C(=O)N[C@@H](CCCNC(=N)N)C(=O)N[C@H](C(=O)N[C@H](C(=O)N[C@@H](C)C(=O)NCC(=O)O)[C@@H](C)CC)C(C)C)[C@@H](C)O [compound 358] | comparable donor coverage | 
6 | APEVKYAVFEAGLTKAITAM-OH [compound 365] | loose some of the donor coverage | 
7 | ASRRPWWASVPPADKFKTFA-OH [compound 356] | loose some of the donor coverage | 
8 | Ac-WGAIWRIDTPDKLTGPFTVR-NH2 [compound 259] |  | T cell coverage of modified peptide compared to the parent peptide (2 μg/ml, TCL03-DK1 and DK2, 27 donors): markedly increased T cell coverage
9 | DKYKTFVETFGTATNKAFVE-OH [compound 343] | better donor coverage than the native peptides | 
10 | FIPMKSSWGA-OH [compound 135] |  | Proliferation % donor coverage (TCL-02 DK1): 13.79%; Proliferation strength (TCL-02 DK1): 1.50
11 | GFKAAVAAAAVVPPADKYKT-OH [compound 342] | better donor coverage than the native peptides | 
12 | GLGSRASYEIKSKEPVESSG-OH [compound 313] | low in donor coverage | 
13 | GRGSGSSFEIKSTKPESSSG-OH [compound 301] | comparable to the native peptides | 
14 | IDKVDAAYRTAATAANAAPA-OH [compound 347] | comparable donor coverage | 
15 | IRLTSEGGAHLVQDDVIPAN-OH [compound 323] | low in donor coverage | 
16 | KDKWIELKESWGAVWRIDTP-OH [compound 308] | comparable to the native peptides | 

Row | Compound | donor coverage of homologue peptide compared with native Phleum peptide (2 μg/ml) | also measured
17 | KFIPTLVAAVKQAYAAKQ-OH [compound 138] |  | Proliferation % donor coverage (TCL-02 DK1): 31.03%; Proliferation strength (TCL-02 DK1): 4.20
18 | KFIPTLVAAVKQAYAAKQAT-OH [compound 351] | loose some of the donor coverage | 
19 | KKPEVKYAVFEAALTKAIT-OH [compound 143] |  | Proliferation % donor coverage (TCL-02 DK1): 48.28%; Proliferation strength (TCL-02 DK1): 7.50; average relative magnitude: around 8
20 | KSSWGAIWRIDPKKPLK-OH [compound 136] |  | Proliferation % donor coverage (TCL-02 DK1): 17.24%; Proliferation strength (TCL-02 DK1): 1.90
21 | KYDAYVATLTEALR-OH [compound 137] |  | Proliferation % donor coverage (TCL-02 DK1): 27.59%; Proliferation strength (TCL-02 DK1): 6.30
22 | LKKAVTAMSEAEK-OH [compound 139] |  | Proliferation % donor coverage (TCL-02 DK1): 20.69%; Proliferation strength (TCL-02 DK1): 2.80
23 | LVQDDVIPANWKPDTVYTSK-OH [compound 324] | low in donor coverage | 
24 | PEVKYAVFEAALTKAIT-OH [compound 140] |  | Proliferation % donor coverage (TCL-02 DK1): 55.17%; Proliferation strength (TCL-02 DK1): 8.20; average relative magnitude: around 8
25 | PTPRTPPLLPPPRARDKATL-OH [compound 355] | better donor coverage than the native peptides | 
26 | SDEFIPMKSSWGAIWRIDPK-OH [compound 321] | comparable to the native peptides | 
27 | SEFEDVIPEGWKADTSYSAK-OH [compound 311] | low in donor coverage | 
28 | SGKAFGAMAKKGQED-OH [compound 134, SGKAFGAMAKKGQED] |  | Proliferation % donor coverage (TCL-02 DK1): 27.59%; Proliferation strength (TCL-02 DK1): 4.00
29 | SLGAAYDSYKFIPTLVAAVK-OH [compound 350] | loose some of the donor coverage | 
30 | TAATPATPATPATPAAVPSG [compound 340] | better donor coverage than the native peptides | 
31 | VRYTTEGGTKSEFEDVIPEG-OH [compound 310] | low in donor coverage | 
32 | WGAIWRIDPKKPLKGPFSIR-OH [compound 322] | not recognized by the T cell lines | 
